Measured values reported in PubChem BioAssay (NCI).
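1) Cells in 96-well plates. 2) Compound, 48 h, 5 concentrations. 3) Linear interpolation between surrounding doses. 4) Unreached endpoint = highest concentration. Here, GI50 denotes the concentration required for 50% inhibition of growth. TGI: concentration producing complete growth inhibition.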

Tests used:
Experiment in all cases: DTP human tumour cell line panel, 48 h
CCRF-CEM leukemia = test system: CCRF-CEM leukemia
786-0 renal = test system: 786-0 renal
SNB-19 CNS = test system: SNB-19 CNS
UACC-257 melanoma = test system: UACC-257 melanoma
HCC-2998 colon = test system: HCC-2998 colon
MDA-MB-231 breast = test system: MDA-MB-231 breast
NCI/ADR-RES ovarian = test system: NCI/ADR-RES ovarian
IGROV1 ovarian = test system: IGROV1 ovarian
MCF7 breast = test system: MCF7 breast
OVCAR-8 ovarian = test system: OVCAR-8 ovarian

## CCSc1ccc(C2C(Br)C(=O)N2c2cc(OC)c(OC)c(OC)c2)cc1 (centres undefined)
CCRF-CEM leukemia
  GI50: 0.278 µM
  TGI: 18.2 µM
786-0 renal
  GI50: 0.34 µM
  TGI: 13.1 µM
SNB-19 CNS
  GI50: 0.44 µM
  TGI: > 100 µM
UACC-257 melanoma
  GI50: 14.3 µM
  TGI: > 100 µM
HCC-2998 colon
  GI50: 0.673 µM
  TGI: 29.1 µM
MDA-MB-231 breast
  GI50: 0.488 µM
  TGI: 95.3 µM
NCI/ADR-RES ovarian
  GI50: 0.125 µM
  TGI: > 100 µM
IGROV1 ovarian
  GI50: 0.63 µM
  TGI: 20.9 µM
MCF7 breast
  GI50: 0.0447 µM
  TGI: 17 µM
OVCAR-8 ovarian
  GI50: 0.403 µM
  TGI: 51.8 µM

## O=C(/C=C\c1ccccc1)N1CCc2ccccc2C1
CCRF-CEM leukemia
  TGI: 91.3 µM
786-0 renal
  TGI: > 100 µM
SNB-19 CNS
  TGI: > 100 µM
UACC-257 melanoma
  TGI: > 100 µM
HCC-2998 colon
  TGI: > 100 µM
MDA-MB-231 breast
  TGI: > 100 µM
NCI/ADR-RES ovarian
  TGI: > 100 µM
IGROV1 ovarian
  TGI: > 100 µM
MCF7 breast
  TGI: > 100 µM
OVCAR-8 ovarian
  TGI: > 100 µM

## C[C@@H]1COCCN1c1cc(C2(O)C[C@H]3CC[C@@H](C2)O3)c2cnn(-c3ccn[nH]3)c2n1 (some centres undefined)
CCRF-CEM leukemia
  GI50: 0.0382 µM
  TGI: > 100 µM
786-0 renal
  GI50: 0.0479 µM
  TGI: > 100 µM
SNB-19 CNS
  GI50: 0.166 µM
  TGI: 1.74 µM
UACC-257 melanoma
  GI50: 0.168 µM
  TGI: 1.42 µM
HCC-2998 colon
  GI50: < 0.0113 µM
  TGI: 0.229 µM
MDA-MB-231 breast
  GI50: 0.138 µM
  TGI: 5.68 µM
NCI/ADR-RES ovarian
  GI50: 0.154 µM
  TGI: 1.1 µM
IGROV1 ovarian
  GI50: 0.0453 µM
  TGI: 0.977 µM
MCF7 breast
  GI50: < 0.0106 µM
  TGI: 1.38 µM
OVCAR-8 ovarian
  GI50: 0.145 µM
  TGI: 1.56 µM

## CCN(Cc1c(Cl)cccc1Cl)c1ccc(CO)c(Cl)c1
CCRF-CEM leukemia
  GI50: 15 µM
  TGI: 36.6 µM
786-0 renal
  GI50: 13.8 µM
  TGI: 28.1 µM
SNB-19 CNS
  GI50: 13.2 µM
  TGI: 26.2 µM
UACC-257 melanoma
  GI50: < 0.0392 µM
  TGI: 0.211 µM
HCC-2998 colon
  GI50: 12.3 µM
  TGI: 27.6 µM
MDA-MB-231 breast
  GI50: 13 µM
  TGI: 26.2 µM
NCI/ADR-RES ovarian
  GI50: 11.8 µM
  TGI: 27.3 µM
IGROV1 ovarian
  GI50: < 0.0253 µM
MCF7 breast
  GI50: 0.146 µM
  TGI: 13.4 µM
OVCAR-8 ovarian
  GI50: 13.7 µM
  TGI: 29.7 µM

## C=CC1=C(C)C2=NC1=CC1=NC(=C(CC)/C1=C\O)C=C1N=C3C(=C1C)C(=O)[C@H](C(=O)OC)C3=C1NC(=C2)[C@@H](C)[C@@H]1CCC(=O)O
CCRF-CEM leukemia
  TGI: > 100 µM
786-0 renal
  TGI: > 100 µM
SNB-19 CNS
  TGI: > 100 µM
UACC-257 melanoma
  TGI: > 100 µM
HCC-2998 colon
  TGI: > 100 µM
MDA-MB-231 breast
  TGI: > 100 µM
NCI/ADR-RES ovarian
  TGI: > 100 µM
IGROV1 ovarian
  TGI: > 100 µM
MCF7 breast
  TGI: > 100 µM
OVCAR-8 ovarian
  TGI: > 100 µM

## CN(C)CCCn1c(-c2nonc2N)nc2cnccc21
CCRF-CEM leukemia
  GI50: > 25 µM
  TGI: > 25 µM
786-0 renal
  GI50: > 25 µM
  TGI: > 25 µM
SNB-19 CNS
  GI50: > 25 µM
  TGI: > 25 µM
UACC-257 melanoma
  GI50: > 25 µM
  TGI: > 25 µM
HCC-2998 colon
  GI50: > 25 µM
  TGI: > 25 µM
MDA-MB-231 breast
  GI50: > 25 µM
  TGI: > 25 µM
NCI/ADR-RES ovarian
  GI50: > 25 µM
  TGI: > 25 µM
IGROV1 ovarian
  GI50: > 25 µM
  TGI: > 25 µM
MCF7 breast
  GI50: > 25 µM
  TGI: > 25 µM
OVCAR-8 ovarian
  GI50: > 25 µM
  TGI: > 25 µM
